Measurements: patent publication US9034897B2, “Indanyl-substituted 4,5,6,7-tetrahydro-1H-pyrazolo[4,3-C]pyridines, their use as medicament, and pharmaceutical preparations comprising them” (SANOFI, priority 2011, dated 2015)

Target: Human TASK-1 channels (Homo sapiens (Human), UniProt O14649)
Test: Activity on the TASK-1 channel in Xenopus oocytes (two-microelectrode voltage clamp)
Type: cell-based
Settings: for IC50: human TASK-1 expressed in Xenopus oocytes, currents during 500 ms pulses to 40 mV, room temperature; for inhibition at 5 µM: percentage inhibition of TASK-1 control current, Xenopus oocytes
Method: Determination of the activity on the TASK-1 channel in Xenopus oocytes:
Human TASK-1 channels were expressed in Xenopus oocytes. For this purpose, oocytes were isolated from Xenopus laevis and defolliculated. Subsequently, TASK-1-encoding RNA synthesized in vitro was injected into oocytes. After two days of TASK-1 protein expression, TASK-1 currents were measured by two-microelectrode voltage clamp. Data were acquired and analyzed using a TEC-10cx amplifier (NPI Electronic, Tamm, Germany) connected to an ITC-16 interface (Instrutech Corp., Long Island, USA) and Pulse software (HEKA Elektronik, Lambrecht, Germany). Oocytes were clamped to −90 mV and TASK-1 mediated currents were measured during 500 ms voltage pulses to 40 mV. Oocytes were continuously superfused with ND96 buffer containing: NaCl 96 mM, KCl2 mM, CaCl2 1.8 mM, MgCl2 1 mM, HEPES 5 mM (pH adjusted to 7.4 with NaOH). All experiments were performed at room temperature.
Test substances were consecutively added to the bath solution at rising concentrations. Compound effects were calculated as the percentage inhibition of
TASK-1 control current before compound application. IC50 values were obtained by fitting the data to the general dose-response equation.

Human TASK-1 channels, sequence (O14649 whole entry): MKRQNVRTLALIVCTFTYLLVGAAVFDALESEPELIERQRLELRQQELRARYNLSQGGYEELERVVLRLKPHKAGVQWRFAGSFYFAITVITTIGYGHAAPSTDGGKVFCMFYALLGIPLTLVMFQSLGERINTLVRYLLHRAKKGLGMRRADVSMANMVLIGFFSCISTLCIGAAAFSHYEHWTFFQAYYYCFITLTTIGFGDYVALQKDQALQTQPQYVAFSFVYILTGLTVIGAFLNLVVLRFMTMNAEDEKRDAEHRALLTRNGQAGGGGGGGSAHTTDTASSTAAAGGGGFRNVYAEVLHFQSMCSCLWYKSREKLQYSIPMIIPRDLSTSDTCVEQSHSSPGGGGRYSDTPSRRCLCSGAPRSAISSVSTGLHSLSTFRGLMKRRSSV

Structure (SMILES)	IC50	inhibition at 5 µM
CC(=O)N1CCc2c(c(-c3cccc(OC(F)(F)F)c3)nn2[C@H]2c3cc(F)cc(F)c3C[C@@H]2O)C1 [Example 11r, 1-[1-((1S,2S)-4,6-Difluoro-2-hydroxy-indan-1-yl)-3-(3-trifluoromethoxy-phenyl)-1,4,6,7-tetrahydro-pyrazolo[4,3-c]pyridin-5-yl]-ethanone]	789 nM	
CSc1cc(F)cc2c1C[C@@H](O)[C@@H]2n1nc(-c2cccc(C#N)c2)c2c1CCN(C(C)=O)C2 [Example 21c, 3-[5-Acetyl-1-((1R,2R)-6-fluoro-2-hydroxy-4-methylsulfanyl-indan-1-yl)-4,5,6,7-tetrahydro-1H-pyrazolo[4,3-c]pyridin-3-yl]-benzonitrile]		87%
COCC(=O)N1CCc2c(c(-c3cccc(C#N)c3)nn2[C@@H]2c3cc(F)cc(F)c3C[C@H]2O)C1 [Example 14e, 3-[1-((1R,2R)-4,6-Difluoro-2-hydroxy-indan-1-yl)-5-(2-methoxy-acetyl)-4,5,6,7-tetrahydro-1H-pyrazolo[4,3-c]pyridin-3-yl]-benzonitrile]		72%
O[C@@H]1Cc2c(F)cc(F)cc2[C@H]1n1nc(-c2ccc(F)cc2)c2c1CCN(CC1CC1)C2 [Example 18a, (1R,2R)-1-[5-cyclopropylmethyl-3-(4-fluoro-phenyl)-4,5,6,7-tetrahydro-pyrazolo[4,3-c]pyridin-1-yl]-4,6-difluoro-indan-2-ol]	500 nM	
CC(=O)N1CCc2c(c(-c3cccc(C#N)c3)nn2[C@H]2c3cc(F)cc(F)c3C[C@@H]2O)C1 [Example 11o, 3-[5-Acetyl-1-((1S,2S)-4,6-difluoro-2-hydroxy-indan-1-yl)-4,5,6,7-tetrahydro-1H-pyrazolo[4,3-c]pyridin-3-yl]-benzonitrile]	675 nM	
CC(C)(C)C(=O)N1CCc2c(c(-c3cccc(C#N)c3)nn2[C@@H]2c3cc(F)cc(F)c3C[C@H]2O)C1 [Example 14d, 3-[1-((1R,2R)-4,6-Difluoro-2-hydroxy-indan-1-yl)-5-(2,2-dimethyl-propionyl)-4,5,6,7-tetrahydro-1H-pyrazolo[4,3-c]pyridin-3-yl]-benzonitrile]		94%
CC(=O)N1CCc2c(c(-c3cccc(C#N)c3)nn2[C@@H]2c3cc(Cl)cc(Cl)c3C[C@H]2O)C1 [Example 11g, 3-[5-Acetyl-1-((1R,2R)-4,6-dichloro-2-hydroxy-indan-1-yl)-4,5,6,7-tetrahydro-1H-pyrazolo[4,3-c]pyridin-3-yl]-benzonitrile]	350 nM	
CC(=O)N1CCc2c(c(-c3ccc(F)cc3)nn2[C@H]2CCc3ccccc32)C1 [Example 12b, 1-[(S)-3-(4-Fluoro-phenyl)-1-indan-1-yl-1,4,6,7-tetrahydro-pyrazolo[4,3-c]pyridin-5-yl]-ethanone]	479 nM	
COc1cc(-c2nn([C@@H]3c4cc(F)cc(F)c4C[C@H]3O)c3c2CN(C(C)=O)CC3)ccc1F [Example 11y, 1-[1-((1R,2R)-4,6-Difluoro-2-hydroxy-indan-1-yl)-3-(4-fluoro-3-methoxy-phenyl)-1,4,6,7-tetrahydro-pyrazolo[4,3-c]pyridin-5-yl]-ethanone]	1920 nM	
NC(=O)c1cccc(-c2nn([C@@H]3c4cc(F)cc(F)c4C[C@H]3O)c3c2CN(CCC(F)(F)F)CC3)c1 [Example 18h, 3-[1-((1R,2R)-4,6-Difluoro-2-hydroxy-indan-1-yl)-5-(3,3,3-trifluoro-propyl)-4,5,6,7-tetrahydro-1H-pyrazolo[4,3-c]pyridin-3-yl]-benzamide]		39%
COc1ccc(-c2nn([C@@H]3c4cc(F)cc(F)c4C[C@H]3O)c3c2CN(C(C)=O)CC3)cc1 [Example 11ad, 1-[1-((1R,2R)-4,6-Difluoro-2-hydroxy-indan-1-yl)-3-(4-methoxy-phenyl)-1,4,6,7-tetrahydro-pyrazolo[4,3-c]pyridin-5-yl]-ethanone]	6890 nM	
CC(=O)N1CCc2c(c(-c3cccc(C#N)c3)nn2[C@@H]2c3cc(F)cc(Cl)c3C[C@H]2O)C1 [Example 21a, 3-[5-Acetyl-1-((1R,2R)-4-chloro-6-fluoro-2-hydroxy-indan-1-yl)-4,5,6,7-tetrahydro-1H-pyrazolo[4,3-c]pyridin-3-yl]-benzonitrile]	393 nM	
